Experiment [1] concerns the target T1, GST (Schistosoma japonicum, UniProt P08515).
T1 construct: purchased Sigma-Aldrich
Description: biochemical. The note with it: inhibitor 1 μM, DCNB 1 mM, glutathione 1 mM, 25°C; for Specific GST activity: mean ± SD of triplicate, control 4.51 ± 0.02. In kind it is biochemical.

In experiment [2] the target is T1, GST. As to the kind of experiment: biochemical. In kind it is biochemical. As to conditions: for Specific GST activity: mean ± SD of triplicate, control 2.80 ± 0.01; for order of inhibition efficiencies: with the use of CDNB or DCNB as the substrates, inhibitors 1 μM; for inhibition of GST activity, in words: control peptides, CDNB or DCNB as substrates. Here is the method:
Figure 3 Effects of F1 and F2 peptides on the activity of GST (μmol/mg/min). The activity was measured by monitoring the GST activity with different peptide concentrations, 1 mM glutathione (GSH) and 1 mM CDNB in 100 mM potassium phosphate buffer (pH6.5) at 25°C.
(§1) The peptide concentration resulting in 50% inhibition (IC50) was determined from a plot of remaining activity versus peptide concentration. Protein concentration was measured according to the Lowry method. Enzyme inhibitory kinetic studies were carried out using various concentrations of glutathione and CDNB and different concentrations of synthetic peptides (0.8, 1.6, 3.2 μM).

Experiment [3] relates to GST. As to conditions: first-generation GST inhibitors; no reference given; cited from earlier work. The text has this: (§2) The development of resistance to anticancer agents is a primary concern in cancer chemotherapy.
Experiment [4] concerns cancer cell lines with increased GST expression. As to conditions: ref [25]; cited from earlier work.
From the text: as §2

Experiment [5] can be described thus: binding of synthesized peptides to glutathione Sepharose 4B beads. As to conditions: for binding to glutathione Sepharose 4B beads, in words: control peptides lacking glutathione-interacting residues. Here is the method: The binding characteristics of selected peptides to glutathione were determined according to the analysis of binding of synthesized peptides to the glutathione Sepharose 4B beads. The amount of glutathione in the glutathione Sepharose 4B beads was estimated according to the assumption (according to the manufacturere's information) that there are about 200–400 μmol glutathione/g dried beads. An average value of 300 μmol glutathione/g dried beads was used to calculate the amount of glutathione in the glutathione Sepharose 4B beads. In our experiments, appropriate amount of wet glutathione Sepharose 4B beads (equal to 1 mg dry beads) was added to a 1.5 ml Eppendorf tube, and different amounts of synthesized peptides were added into the tube. After binding for 10 min at 37°C, the binding complexes were separated by centrifugation (12,000 × g for 10 min) and concentrations of bound and free peptides were determined by using the Lowry method. Scatchard analysis was used to determine the Kd and Bmax values. Bmax means the maximum binding sites of synthesized peptide on glutathione Speharose 4B beads (μmol peptide/μmol glutathione). Kd is a dissociation constant (pM). Thus, a low Kd value indicates a high affinity.

Experiment [6] concerns the target T1, GST. As to the kind of experiment: biochemical. In kind it is biochemical. The note with it: for pKi: Ki; for effect on Vmax and Km, in words: changing glutathione and peptide concentrations. Here is the method:
To obtain information on the nature of the inhibition by F1 and F2 peptides, GST activity was measured with variable concentrations of glutathione. Here, we applied a new model in describing enzyme inhibitor (Fig. 4).
The Lineweaver-Burk plot for glutathione as the variable peptide concentration was applied to determine the types of inhibition caused by F1 and F2 peptides. The plot provides a useful graphical method for analysis of the Michaelis-Menten equation. The effects of the peptide on GST-catalyzed reaction kinetics were determined by analysis of apparent Vmax, inhibitor constant Ki and [I]/Ki values.
Figure 5 Lineweaver-Burk plot of the GST activity with varying glutathione (GSH) concentrations. A): The activity was measured with 1 mM CDNB, and different concentrations of GSH, and the F1 peptide. B): The activity was measured with 1 mM CDNB, and different concentrations of GSH, and the F2 peptide.
as §1

The mark [7] stands for this setting: control 100%, % sign missing in F1 cell.
Where [8] appears, read: inhibitor 1 μM, CDNB 1 mM, glutathione 1 mM, 25°C, control 100%.
Where [9] appears, read: inhibitor 1 μM, CDNB 1 mM, glutathione 1 mM, 25°C.
Where [10] appears, read: after elution with elution buffer.
Setting [11] is: before elution, ratio of peptide concentrations after and before binding.

pIC50, pKi: −log10 of the molar value. No end group written: not given here.

These results are taken from publication PMC2662877, “A novel method for screening the glutathione transferase inhibitors” (BMC Biochemistry, 2009).

T1 sequence (P08515 whole entry): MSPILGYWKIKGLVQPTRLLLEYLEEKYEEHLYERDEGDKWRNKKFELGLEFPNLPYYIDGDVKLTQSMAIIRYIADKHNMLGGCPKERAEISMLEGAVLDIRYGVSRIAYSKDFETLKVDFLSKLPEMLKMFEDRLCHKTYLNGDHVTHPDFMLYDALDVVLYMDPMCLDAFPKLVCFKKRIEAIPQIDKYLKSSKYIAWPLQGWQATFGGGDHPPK

The term remaining activity denotes the activity still measured, relative to the control. A higher remaining activity goes with a small loss of activity. Take `Nc1c(S(=O)(=O)O)cc(Nc2ccc(Nc3nc(Cl)nc(Nc4ccccc4S(=O)(=O)O)n3)c(S(=O)(=O)O)c2)c2c1C(=O)c1ccccc1C2=O` [cibacron blue]: the values for the remaining activity at 1 µM in experiment [1] (setting [7]) and in experiment [2] (setting [8]) were 21.3% and 18.3%, respectively. Moreover, the entries for the “Specific GST activity” value in experiment [1] and in experiment [2] (setting [9]) were 0.96 ± 0.01 units/mg and 0.51 ± 0.01 units/mg, respectively. Moreover, the “order of inhibition efficiencies” value in experiment [2] is given as “tannic acid > cibacron blue > F2 peptide > hematin > F1 peptide > ethacrynic acid”.

On to `C=C(CC)C(=O)c1ccc(OCC(=O)O)c(Cl)c1Cl` [ethacrynic acid], for which, in experiment [3], the “outcome in clinical trials” value is listed as “unsuccessful in clinical trials”. Moreover, the “Specific GST activity” value in experiment [1] turned out to be 3.66 ± 0.02 units/mg; in experiment [2] (setting [9]), 1.54 ± 0.01 units/mg.

In the case of `C=CC1=C(C)c2cc3[n-]c(cc4[n-]c(cc5nc(cc1n2)C(C)=C5C=C)c(C)c4CCC(=O)O)c(CCC(=O)O)c3C.O.[Fe+2]` [hematin], the “GST activity remaining, % of control” value in experiment [1] (setting [7]) is listed as 42.1%; in experiment [2] (setting [8]) it was 35.2%. Further, the figures for the “Specific GST activity” value in experiment [1] and in experiment [2] (setting [9]) were 1.90 ± 0.02 units/mg and 0.99 ± 0.01 units/mg, respectively. For the same compound, in experiment [2], the “order of inhibition efficiencies” value was “tannic acid > cibacron blue > F2 peptide > hematin > F1 peptide > ethacrynic acid”.

Consider `C=C[C@H]1C[N@@]2CC[C@H]1C[C@H]2[C@H](O)c1ccnc2ccc(OC)cc12` [quinine], for which, in experiment [4], the “reversal of resistance to melphalan and doxorubicin” value was “reported to reverse the resistance to melphalan and doxorubicin”.

For the compound “GKIKGV [F3 peptide, control peptide F3, lacking Tyr6, Trp7 and Leu12]”, the Binding efficiency in experiment [5] (setting [10]) and in experiment [5] (setting [11]) was 1.2% throughout. Further, the “binding to glutathione Sepharose 4B beads, in words” value in experiment [5] was “could not bind efficiently”. The “inhibition of GST activity, in words” value in experiment [2] is listed as “could not find any significant inhibition of the GST activity”.

By pIC50 is commonly meant the IC50 on a negative log10 scale, so that one unit is a factor of ten. High values mean a low IC50, low ones a high IC50. As a reminder, the pKi is −log10 of the Ki, conventionally taken in molar units. A high value points to a low Ki. In experiment [2], GYWKIKGLV [F1 peptide] showed a pIC50 of 6.10. Besides, the pKi in experiment [6] (F1 peptide 0.8 μM, noncompetitive) is 5.40; in experiment [6] (F1 peptide 1.6 μM, noncompetitive) it was 5.34; in experiment [6] (F1 peptide 3.2 μM, noncompetitive) it was 5.24. Besides, the “effect on Vmax and Km, in words” value in experiment [6] is given as “Vmax decreased while Km remained unchanged”.

Regarding “KWNKFELGLEFPL [F4 peptide, control peptide F4, lacking Arg41, Lys44 and Asn53 residues]”, the Binding efficiency in experiment [5] (setting [10]) was found to be 2.5%; in experiment [5] (setting [11]), 2.6%. In addition, the “binding to glutathione Sepharose 4B beads, in words” value in experiment [5] is recorded as “could not bind efficiently”. Besides, the “inhibition of GST activity, in words” value in experiment [2] is on record as “could not find any significant inhibition of the GST activity”.

In turn, KWRNKKFELGLEFPNL [F2 peptide] had a pIC50 in experiment [2] of 6.22. For the same compound, the pKi was 5.82 in experiment [6] (F2 peptide 0.8 μM, competitive); 5.80 in experiment [6] (F2 peptide 1.6 μM, competitive); 5.62 in experiment [6] (F2 peptide 3.2 μM, competitive). Besides, the “effect on Vmax and Km, in words” value in experiment [6] is “Km decreased while Vmax remained unchanged”.

tannic acid: the “GST activity remaining, % of control” value in experiment [1] (setting [7]) was 10.9%; in experiment [2] (setting [8]) it was 5.6%. The “Specific GST activity” value is on record as 0.49 ± 0.01 units/mg in experiment [1] and 0.16 ± 0.01 units/mg in experiment [2] (setting [9]). Also, the “order of inhibition efficiencies” value in experiment [2] is on record as “tannic acid > cibacron blue > F2 peptide > hematin > F1 peptide > ethacrynic acid”.
